Source: patent US9611253B2, “Solid forms comprising optically active pyrazolylaminoquinazoline, compositions thereof, and uses therewith” (AMBIT BIOSCIENCES CORPORATION, priority 2012, dated 2017)

What was measured:
[1] = Stability of esylate salt in water and aqueous ethanol (dissociation to free base); format: physicochemical; conditions: in water and aqueous ethanol solutions
Excerpt: Spontaneous precipitation from the aqueous solution afforded Compound 6 as free base; a new crystalline XRPD pattern was observed (See FIG. 38). The free base of Compound 6 was partially precipitated upon water addition to the ethanol solution and was further recovered by evaporation of the ethanol: water solution. These observations indicate the esylate salt is unstable in water and aqueous ethanol due to dissociation.
A new crystalline XRPD pattern designated as Form A of the free base of Compound 6 was observed from precipitation in ethanol with water (antisolvent) when amorphous ethanesulfonate salt of Compound 6 was used. (FIG. 38, top pattern). Summary of the data obtained for Form A of the free base is shown below in Table 16. […] The Compound 6 free base was recovered by further evaporation of the aqueous ethanol solution. […] These observations indicate the esylate salt is unstable due to dissociation in water and aqueous ethanol solutions.

[2] = Solubility in ethanol observed during salt formation; format: physicochemical
Description: To a 2-L Morton flask equipped with a heating mantle, thermocouple, condenser and mechanical stirrer was charged (4-fluorophenyl)(4-((5-methyl-1H-pyrazol-3-yl)amino)quinazolin-2-yl)methanol free base (40.20 g, 115 mmol, 1.0 equiv.). Ethanol (1.6 L) was added and the suspension was stirred and heated to reflux (78° C., internal temperature) until dissolution of the suspension was observed. Ethanesulfonic acid (9.4 mL, 115 mmol, 1.0 equiv.) was charged to the resulting yellow solution. Reflux was maintained for 1 hour, then heating was discontinued and the reaction was allowed to cool to room temperature and stirred overnight. Stirring was stopped and the solids were allowed to settle. The reaction was filtered and the initial isolated product (R)-(4-fluorophenyl)(4-((5-methyl-1H-pyrazol-3-yl)amino)quinazolin-2-yl)methanol dried in a vacuum oven (45° C., ˜20 torr) for 3 days to produce 29.69 g, 65 mmol, 56% yield. The supernatant was concentrated and a second crop of the product was obtained and dried as the first to produce 10.52 g, 23 mmol, 20% yield.
The combined yield for the two crops was 76%. […] Higher yields of salt can be obtained by reducing the amount of ethanol. […]

[3] = Solubility/crystallization screen of Compound 6 salts (20 mg salt, solvent, heating, then standing)
Description: The resulting solids were analyzed by DSC and portions of each salt were tested for solubility and crystallization from the following solvents:
20 mg of salt was charged to a 1-dram screw-top vial. Solvent (enough to cover the solids) was added, the vial was capped and heated (heat gun) to aid dissolution. If no, or partial dissolution was observed, the vial was allowed to cool, additional solvent was added and the process repeated. The solubility was characterized as follows: Soluble (sol): the solids dissolved upon heating, Sparingly soluble (sp): the solids dissolved upon heating after two or more additions of solvent or Insoluble (I): complete dissolution could not be achieved. […] The vials containing solids were filtered and analyzed by DSC.

[4] = standing 1 h after cooling to room temperature
[5] = standing 4 d after cooling to room temperature

## CCS(=O)(=O)O [Ethanesulfonic acid]
[1]
  Stability of the salt (dissociation to free base): unstable
[2]
  Solubility in ethanol compared to the free base: higher solubility in ethanol
[3]; Heating
  Solubility in EtOH: sol
  Solubility in H2O: sol
  Solubility in IPA: sol
  Solubility in MeOH: sol
[3]; [4]
  Solubility/crystallization in EtOH: cryst
  Solubility/crystallization in H2O: gels
  Solubility/crystallization in IPA: cryst
  Solubility/crystallization in MeOH: sol
[3]; [5]
  Solubility/crystallization in EtOH: cryst
  Solubility/crystallization in IPA: cryst
  Solubility/crystallization in MeOH: sol
